# Test results from patent publication US10450297B2, “Sulfonyl amide derivatives for the treatment of abnormal cell growth” (Pfizer, Inc., priority 2007, dated 2019).
# Target: FAK kinase (catalytic construct FAK(410-689)) (Homo sapiens (Human), UniProt Q05397)
# Assay: FAKcd kinase ELISA (inhibition of poly-glu-tyr phosphorylation by FAK(410-689))
# Type: biochemical
# Conditions: 50 μM final ATP
# Sequence of FAK kinase (catalytic construct FAK(410-689)) (Q05397 410-689): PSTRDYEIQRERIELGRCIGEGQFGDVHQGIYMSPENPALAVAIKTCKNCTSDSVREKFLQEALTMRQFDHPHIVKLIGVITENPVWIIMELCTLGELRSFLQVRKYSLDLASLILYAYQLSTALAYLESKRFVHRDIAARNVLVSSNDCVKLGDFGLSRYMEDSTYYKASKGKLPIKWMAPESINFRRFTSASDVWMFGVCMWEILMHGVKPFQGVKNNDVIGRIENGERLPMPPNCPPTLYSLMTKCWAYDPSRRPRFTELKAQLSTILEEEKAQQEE
row,Compound,IC50 [nM]
1,"CN(c1ncccc1CNc1nc(Nc2cccc(C(=O)N3C[C@@H](F)[C@H](F)C3)c2)ncc1C(F)(F)F)S(C)(=O)=O [Compound 153, N-{3-[({2-[(3-{[(3R,4R)-3,4-difluoropyrrolidin-1-yl]carbonyl}phenyl)amino)-5-(trifluoromethyl)pyrimidin-4-yl}amino)methyl]pyridin-2-yl}-N-methylmethane-sulfonamide]",3.35
2,"CC1CCCN1C(=O)c1cccc(Nc2ncc(C(F)(F)F)c(NCc3cccnc3N(C)S(C)(=O)=O)n2)c1 (stereo not drawn) [Compound 155, N-methyl-N-[3-({[2-({3-[(2-methylpyrrolidin-1-yl)carbonyl]phenyl}amino)-5-(trifluoromethyl)pyrimidin-4-yl]amino}methyl)pyridin-2-yl]methanesulfonamide]",9.75
3,"CN(c1ncccc1CNc1nc(Nc2cccc(C(=O)N3CC[C@H](O)C3)c2)ncc1C(F)(F)F)S(C)(=O)=O [Compound 157, N-{3-[({2-[(3-{[(3S)-3-hydroxypyrrolidin-1-yl]carbonyl}phenyl)amino]-5-(trifluoromethyl)pyrimidin-4-yl}amino)methyl]pyridin-2-yl}-N-methylmethane-sulfonamide]",4.24
4,"CN(c1ncccc1CNc1nc(Nc2cccc(C(=O)N3CCC[C@H](O)C3)c2)ncc1C(F)(F)F)S(C)(=O)=O [Compound 159, N-{3-[({2-[(3-{[(3S)-3-hydroxypiperidin-1-yl]carbonyl}phenyl)amino]-5-(trifluoromethyl)pyrimidin-4-yl}amino)methyl]pyridin-2-yl}-N-methylmethane-sulfonamide]",6.14
5,"CC(C)[C@H](CO)NC(=O)c1cccc(Nc2ncc(C(F)(F)F)c(NCc3cccnc3N(C)S(C)(=O)=O)n2)c1 [Compound 161, N-[(1R)-1-(hydroxymethyl)-2-methylpropyl]-3-({4-(({2-[methyl(methylsulfonyl)amino]pyridin-3-yl}methyl)amino]-5-(trifluoromethyl)pyrimidin-2-yl}amino)benzamide]",3.74
6,"CN(c1ncccc1CNc1nc(Nc2cccc(C(=O)NC3CCCC3)c2)ncc1C(F)(F)F)S(C)(=O)=O [Compound 163, N-cyclopentyl-3-({4-[({2-[methyl(methylsulfonyl)amino]pyridin-3-yl}methyl)amino]-5-(trifluoromethyl)pyrimidin-2-yl}amino)benzamide]",5.1
7,"CN(C)C1CN(C(=O)c2cccc(Nc3ncc(C(F)(F)F)c(NCc4cccnc4N(C)S(C)(=O)=O)n3)c2)C1 [Compound 165, N-{3-[({2-[(3-{[3-(dimethylamino)azetidin-1-yl]carbonyl}phenyl)amino]-5-(trifluoromethyl)pyrimidin-4-yl}amino)methyl]pyridin-2-yl}-N-rnethylmethane-sulfonamide]",4.93
8,"CC(=O)NCCNC(=O)c1cccc(Nc2ncc(C(F)(F)F)c(NCc3cccnc3N(C)S(C)(=O)=O)n2)c1 [Compound 167, N-[2-(acetylamino)ethyl]-3-({4-[({2-[methyl(methylsulfonyl)amino]pyridin-3-yl}methyl)amino]-5-(trifluoromethyl)pyrimidin-2-yl}amino)benzamide]",3.44
9,"CC[C@H](CO)NC(=O)c1cccc(Nc2ncc(C(F)(F)F)c(NCc3cccnc3N(C)S(C)(=O)=O)n2)c1 [Compound 169, N-[(1R)-1-(hydroxymethyl)propyl]-3-({4-(({2-[methyl(methylsulfonyl)amino]pyridin-3-yl}methyl)amino]-5-(trifluoromethyl)pyrimidin-2-yl}amino)benzamide]",2.47
10,"CN(c1ncccc1CNc1nc(Nc2cccc(C(=O)N3CCCCC3)c2)ncc1C(F)(F)F)S(C)(=O)=O [Compound 171, N-methyl-N-[3-({[2-{[3-(piperidin-1-ylcarbonyl)phenyl]amino}-5-(trifluoromethyl)pyrimidin-4-yl]amino}methyl)pyridin-2-yl]methanesulfonamide]",7.91
11,"CN1CCC(NC(=O)c2cccc(Nc3ncc(C(F)(F)F)c(NCc4cccnc4N(C)S(C)(=O)=O)n3)c2)CC1 [Compound 173, 3-({4-[({2-[methyl(methylsulfonyl)amino]pyridin-3-yl}methyl)amino]-5-(trifluoromethyl)pyrimidin-2-yl}amino)-N-(1-methylpiperidin-4-yl)benzamide]",0.96
12,"CN(c1ncccc1CNc1nc(Nc2cccc(C(=O)N3CC[C@@H](O)C3)c2)ncc1C(F)(F)F)S(C)(=O)=O [Compound 175, N-{3-[({2-[(3-{[(3R)-3-hydroxypyrrolidin-1-yl]carbonyl}phenyl)amino]-5-(trifluoromethyl)pyrimidin-4-yl}amino)methyl]pyridin-2-yl}-N-methyl-methanesulfonamide]",4.08
13,"CN(c1ncccc1CNc1nc(Nc2cccc(C(=O)N3CCC(F)(F)C3)c2)ncc1C(F)(F)F)S(C)(=O)=O [Compound 177, N-[3-({(2-({3-[(3,3-difluoropyrrolidin-1-yl)carbonyl]phenyl}amino)-5-(trifluoromethyl)pyrimidin-4-yl]amino}methyl)pyridin-2-yl]-N-methylmethane-sulfonamide]",5.93
14,"CC(C)[C@@H](CO)NC(=O)c1cccc(Nc2ncc(C(F)(F)F)c(NCc3cccnc3N(C)S(C)(=O)=O)n2)c1 [Compound 179, N-[(1S)-1-(hydroxymethyl)-2-methylpropyl]-3-({4-[({2-[methyl(methylsulfonyl)amino]pyridin-3-yl}methyl)amino]-5-(trifluoromethyl)pyrimidin-2-yl}amino)benzamide]",1.09
15,"COCCCN(C)C(=O)c1cccc(Nc2ncc(C(F)(F)F)c(NCc3cccnc3N(C)S(C)(=O)=O)n2)c1 [Compound 181, N-(3-methoxypropyl)-N-methyl-3-({4-[({2-[methyl(methylsulfonyl)amino]pyridin-3-yl}methyl)amino]-5-(trifluoromethyl)pyrimidin-2-yl}amino)benzamide]",9.18
16,"CC[C@@H](CO)NC(=O)c1cccc(Nc2ncc(C(F)(F)F)c(NCc3cccnc3N(C)S(C)(=O)=O)n2)c1 [Compound 183, N-[(1S)-1-(hydroxymethyl)propyl]-3-({4-[({2-[methyl(methylsulfonyl)amino]pyridin-3-yl}methyl)amino]-5-(trifluoromethyl)pyrimidin-2-yl}amino)benzamide]",1.96
17,"CN(c1ncccc1CNc1nc(Nc2cccc(C(=O)NC3CCC3)c2)ncc1C(F)(F)F)S(C)(=O)=O [Compound 185, N-cyclobutyl-3-({4-[({2-[methyl(methylsulfonyl)amino]pyridin-3-yl}methyl)amino]-5-(trifluoromethyl)pyrimidin-2-yl}amino)benzamide]",2.17
18,"CC(C)NC(=O)c1cccc(Nc2ncc(C(F)(F)F)c(NCc3cccnc3N(C)S(C)(=O)=O)n2)c1 [Compound 189, N-isopropyl-3-({4-[({2-[methyl(methylsulfonyl)amino]pyridin-3-yl}methyl)amino]-5-(trifluoromethyl)pyrimidin-2-yl}amino)benzamide]",4.3
19,"CN(c1ncccc1CNc1nc(Nc2cccc(C(=O)NCc3ccccc3)c2)ncc1C(F)(F)F)S(C)(=O)=O [Compound 191, N-benzyl-3-({4-[({2-[methyl(methylsulfonyl)amino]pyridin-3-yl}methyl)amino]-5-(trifluoromethyl)pyrimidin-2-yl}amino)benzamide]",5.5
20,"CCCN(CCO)C(=O)c1cccc(Nc2ncc(C(F)(F)F)c(NCc3cccnc3N(C)S(C)(=O)=O)n2)c1 [Compound 193, N-(2-hydroxyethyl)-3-({4-[({2-[methyl(methylsulfonyl)amino]pyridin-3-yl}methyl)amino]-5-(trifluoromethyl)pyrimidin-2-yl}amino)-N-propylbenzamide]",1.1
21,"CCN(CCOC)C(=O)c1cccc(Nc2ncc(C(F)(F)F)c(NCc3cccnc3N(C)S(C)(=O)=O)n2)c1 [Compound 195, N-ethyl-N-(2-methoxyethyl)-3-({4-[({2-[methyl(methylsulfonyl)amino]pyridin-3-yl}methyl)amino]-5-(trifluoromethyl)pyrimidin-2-yl}amino)benzamide]",6.81
22,"CC1CCN(C(=O)c2cccc(Nc3ncc(C(F)(F)F)c(NCc4cccnc4N(C)S(C)(=O)=O)n3)c2)CC1 [Compound 197, N-methyl-N-[3-({[2-({3-[(4-methylpiperidin-1-yl)carbonyl]phenyl}amino)-5-(trifluoromethyl)pyrimidin-4-yl]amino}methyl)pyridin-2-yl]methanesulfonamide]",4.47
23,"CN1CCN(C(=O)c2cccc(Nc3ncc(C(F)(F)F)c(NCc4cccnc4N(C)S(C)(=O)=O)n3)c2)CC1 [Compound 199, N-methyl-N-[3-({[2-({3-[(4-methylpiperazin-1-yl)carbonyl]phenyl}amino)-5-(trifluoromethyl)pyrimidin-4-yl]amino}methyl)pyridin-2-yl]methanesulfonamide]",2.56
24,"CN(c1ncccc1CNc1nc(Nc2cccc(C(=O)NC(C)(C)CO)c2)ncc1C(F)(F)F)S(C)(=O)=O [Compound 201, N-(2-hydroxy-1,1-dimethylethyl)-3-({4-[({2-[methyl(methylsulfonyl)amino]pyridin-3-yl}methyl)amino]-5-(trifluoromethyl)pyrimidin-2-yl}amino)benzamide]",1.64
25,"CCC(CO)NC(=O)c1cccc(Nc2ncc(C(F)(F)F)c(NCc3cccnc3N(C)S(C)(=O)=O)n2)c1 (stereo not drawn) [Compound 203, N-[1-(hydroxymethyl)propyl]-3-({4-[({2-[methyl(methylsulfonyl)amino]pyridin-3-yl}methyl)amino]-5-(trifluoromethyl)pyrirnidin-2-yl}amino)benzamide]",1.13
26,"CN(C)CCNC(=O)c1cccc(Nc2ncc(C(F)(F)F)c(NCc3cccnc3N(C)S(C)(=O)=O)n2)c1 [Compound 205, N-[2-(dimethylamino)ethyl]-3-({4-[({2-[methyl(methylsulfonyl)amino]pyridin-3-yl}methyl)amino]-5-(trifluoromethyl)pyrimidin-2-yl}amino)benzamide]",3.2
27,"C[C@@H]1COCCN1C(=O)c1cccc(Nc2ncc(C(F)(F)F)c(NCc3cccnc3N(C)S(C)(=O)=O)n2)c1 [Compound 207, N-methyl-N-{3-[({2-[(3-{[(3R)-3-methylmorpholin-4-yl]carbonyl}phenyl)amino]-5-(trifluoromethyl)pyrimidin-4-yl}amino)methyl]pyridin-2-yl}methanesulfonamide]",2.78
